# Source: ChEMBL document CHEMBL1201861, “Genomics of Drug Sensitity in Cancer screening data, Wellcome Trust Sanger Institute”
# pIC50: −log10 of the molar value.
# How the values were obtained:
# Assay in all cases: cells
# Assay type in all cases: functional, cell-based, Homo sapiens
# [1] = test system: EFO-21;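 note: growth inhibition of EFO-21 cells measured with a viability assay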
# Description: SANGER: Inhibition of human EFO-21 cell growth in a cell viability assay.
# [2] = test system: A 172;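 note: growth inhibition of A172 cells, measured with a cell viability readout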
# Description: SANGER: Inhibition of human A172 cell growth in a cell viability assay.
# [3] = test system: NCI-H2052;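 note: growth inhibition of NCI-H2052 cells, read out with a cell viability assay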
# Description: SANGER: Inhibition of human NCI-H2052 cell growth in a cell viability assay.
# [4] = test system: GAMG;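 note: cell growth inhibition measured by a viability assay in the GAMG human cell line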
# Description: SANGER: Inhibition of human GAMG cell growth in a cell viability assay.
# [5] = test system: IGROV-1;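 note: reduction of IGROV-1 cell growth, read out with a viability assay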
# Description: SANGER: Inhibition of human IGROV-1 cell growth in a cell viability assay.
# [6] = test system: MDA-MB-175-VII
# [7] = test system: KYSE-520 cell line;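 note: growth inhibition of human KYSE-520 cells, read out with a viability assay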
# Description: SANGER: Inhibition of human KYSE-520 cell growth in a cell viability assay.
# [8] = test system: 786-0
# Description: SANGER: Inhibition of human 786-0 cell growth in a cell viability assay.
# [9] = test system: SW1783;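 note: cell growth inhibition measured with a viability assay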
# Description: SANGER: Inhibition of human SW1783 cell growth in a cell viability assay.
# [10] = test system: NCI-H28;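 note: growth inhibition of human NCI-H28 cells, read out as cell viability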
# Description: SANGER: Inhibition of human NCI-H28 cell growth in a cell viability assay.
# [11] = test system: LCLC-103H cell line
# Description: SANGER: Inhibition of human LCLC-103H cell growth in a cell viability assay.
# [12] = test system: Hs-578T
# Description: SANGER: Inhibition of human Hs-578-T cell growth in a cell viability assay.
# [13] = test system: SNU-423
# Description: SANGER: Inhibition of human SNU-423 cell growth in a cell viability assay.
# [14] = test system: SN12C;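 note: growth inhibition of human SN12C cells, measured by a cell viability assay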
# Description: SANGER: Inhibition of human SN12C cell growth in a cell viability assay.
# [15] = test system: NCI-H727;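 note: growth inhibition of human NCI-H727 cells, read out with a cell viability assay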
# Description: SANGER: Inhibition of human NCI-H727 cell growth in a cell viability assay.
# [16] = test system: ME-180;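 note: cell viability assay measuring growth inhibition of ME-180 cells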
# Description: SANGER: Inhibition of human ME-180 cell growth in a cell viability assay.
# [17] = test system: NCI-H2347;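 note: growth inhibition of the cell line, read out with a cell viability assay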
# Description: SANGER: Inhibition of human NCI-H2347 cell growth in a cell viability assay.
# [18] = test system: OC-314
# Description: SANGER: Inhibition of human OC-314 cell growth in a cell viability assay.
# [19] = test system: HLE;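 note: growth inhibition of human HLE cells, read out by a cell viability assay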
# Description: SANGER: Inhibition of human HLE cell growth in a cell viability assay.
# [20] = test system: EFM-19;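 note: growth inhibition of human EFM-19 cells, measured in a cell viability assay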
# Description: SANGER: Inhibition of human EFM-19 cell growth in a cell viability assay.
# [21] = test system: 8305C
# Description: SANGER: Inhibition of human 8305C cell growth in a cell viability assay.
# [22] = test system: A549;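 note: growth inhibition of A549 cells, read out with a cell viability assay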
# Description: SANGER: Inhibition of human A549 cell growth in a cell viability assay.
# [23] = test system: KYSE-270;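 note: cell growth inhibition measured with a viability assay in the human KYSE-270 line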
# Description: SANGER: Inhibition of human KYSE-270 cell growth in a cell viability assay.
# [24] = test system: BT-549
# Description: SANGER: Inhibition of human BT-549 cell growth in a cell viability assay.
# [25] = test system: KNS-62;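 note: inhibition of cell growth, read out with a cell viability assay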
# Description: SANGER: Inhibition of human KNS-62 cell growth in a cell viability assay.
# [26] = test system: C-33-A;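 note: cell viability assay measuring growth inhibition of C-33-A cells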
# Description: SANGER: Inhibition of human C-33-A cell growth in a cell viability assay.
# [27] = test system: HSC-3
# Description: SANGER: Inhibition of human HSC-3 cell growth in a cell viability assay.
# [28] = test system: Detroit 562;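 note: growth inhibition of human Detroit 562 cells, read out by a cell viability assay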
# Description: SANGER: Inhibition of human Detroit562 cell growth in a cell viability assay.
# [29] = test system: NCI-H2087;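 note: growth inhibition determined with a cell viability readout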
# Description: SANGER: Inhibition of human NCI-H2087 cell growth in a cell viability assay.
# [30] = test system: BFTC-909
# Description: SANGER: Inhibition of human BFTC-909 cell growth in a cell viability assay.
# [31] = test system: SW1990;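 note: cell growth inhibition determined with a viability assay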
# Description: SANGER: Inhibition of human SW1990 cell growth in a cell viability assay.
# [32] = test system: HCC1395;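 note: growth inhibition of HCC1395 cells, read out by a cell viability assay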
# Description: SANGER: Inhibition of human HCC1395 cell growth in a cell viability assay.
# [33] = test system: NCI-H1693;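 note: growth inhibition of the human cell line, read out with a cell viability assay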
# Description: SANGER: Inhibition of human NCI-H1693 cell growth in a cell viability assay.
# [34] = test system: 639-V;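 note: growth inhibition of 639-V cells, read out with a cell viability assay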
# Description: SANGER: Inhibition of human 639-V cell growth in a cell viability assay.
# [35] = test system: M14;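 note: growth inhibition of M14 cells, read out with a cell viability assay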
# Description: SANGER: Inhibition of human M14 cell growth in a cell viability assay.
# [36] = test system: HPAF-II;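 note: growth inhibition of HPAF-II cells, read out with a cell viability assay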
# Description: SANGER: Inhibition of human HPAF-II cell growth in a cell viability assay.
# [37] = test system: Huh-7;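 note: HuH-7 cell growth inhibition, read out with a cell viability assay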
# Description: SANGER: Inhibition of human HuH-7 cell growth in a cell viability assay.
# [38] = test system: RCM-1;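 note: growth inhibition of the RCM-1 line, determined with a cell viability readout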
# Description: SANGER: Inhibition of human RCM-1 cell growth in a cell viability assay.
# [39] = test system: HSC-4;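 note: growth inhibition of human HSC-4 cells, read out with a cell viability assay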
# Description: SANGER: Inhibition of human HSC-4 cell growth in a cell viability assay.
molecule,measurement,setting,value
CO[C@H]1C[C@@H]2CC[C@@H](C)[C@@](O)(O2)C(=O)C(=O)N2CCCC[C@H]2C(=O)O[C@H]([C@H](C)C[C@@H]2CC[C@@H](OC(=O)C(C)(CO)CO)[C@H](OC)C2)CC(=O)[C@H](C)/C=C(\C)[C@@H](O)[C@@H](OC)C(=O)[C@H](C)C[C@H](C)/C=C/C=C/C=C/1C [TEMSIROLIMUS],pIC50,"[1]; Homo sapiens, EFO-21",< 6.70
same,pIC50,"[2]; Homo sapiens, A 172",< 6.70
same,pIC50,"[3]; Homo sapiens, NCI-H2052",< 6.70
same,pIC50,"[4]; Homo sapiens, GAMG",8.42
same,pIC50,"[5]; Homo sapiens, IGROV-1",7.41
same,pIC50,"[6]; Homo sapiens, MDA-MB-175-VII",< 6.70
same,pIC50,"[7]; Homo sapiens, KYSE-520",6.86
same,pIC50,[8]; Homo sapiens,7.29
same,pIC50,"[9]; Homo sapiens, SW1783",< 6.70
same,pIC50,"[10]; Homo sapiens, NCI-H28",< 6.70
same,pIC50,"[11]; Homo sapiens, LCLC-103H",< 6.70
same,pIC50,"[12]; Homo sapiens, Hs-578T",7.18
same,pIC50,"[13]; Homo sapiens, SNU-423",6.76
same,pIC50,"[14]; Homo sapiens, SN12C",6.74
same,pIC50,"[15]; Homo sapiens, NCI-H727",< 6.70
same,pIC50,"[16]; Homo sapiens, ME-180",6.96
same,pIC50,"[17]; Homo sapiens, NCI-H2347",< 6.70
same,pIC50,"[18]; Homo sapiens, OC-314",7.75
same,pIC50,"[19]; Homo sapiens, HLE",7.27
same,pIC50,"[20]; Homo sapiens, EFM-19",7.09
same,pIC50,"[21]; Homo sapiens, 8305C",< 6.70
same,pIC50,"[22]; Homo sapiens, A549",7.69
same,pIC50,"[23]; Homo sapiens, KYSE-270",6.78
same,pIC50,"[24]; Homo sapiens, BT-549",< 6.70
same,pIC50,"[25]; Homo sapiens, KNS-62",7.30
same,pIC50,"[26]; Homo sapiens, C-33-A",< 6.70
same,pIC50,"[27]; Homo sapiens, HSC-3",7.41
same,pIC50,"[28]; Homo sapiens, Detroit 562",< 6.70
same,pIC50,"[29]; Homo sapiens, NCI-H2087",< 6.70
same,pIC50,"[30]; Homo sapiens, BFTC-909",< 6.70
same,pIC50,"[31]; Homo sapiens, SW1990",< 6.70
same,pIC50,"[32]; Homo sapiens, HCC1395",< 6.70
same,pIC50,"[33]; Homo sapiens, NCI-H1693",7.04
same,pIC50,"[34]; Homo sapiens, 639-V",< 6.70
same,pIC50,"[35]; Homo sapiens, M14",< 6.70
same,pIC50,"[36]; Homo sapiens, HPAF-II",< 6.70
same,pIC50,"[37]; Homo sapiens, Huh-7",7.91
same,pIC50,"[38]; Homo sapiens, RCM-1",< 6.70
same,pIC50,"[39]; Homo sapiens, HSC-4",> 9.11
CS(=O)(=O)c1ccc(C(=O)Nc2ccc(Cl)c(-c3ccccn3)c2)c(Cl)c1 [VISMODEGIB],pIC50,"[1]; Homo sapiens, EFO-21",< 5.00
same,pIC50,"[2]; Homo sapiens, A 172",< 5.00
same,pIC50,"[3]; Homo sapiens, NCI-H2052",< 5.00
same,pIC50,"[4]; Homo sapiens, GAMG",< 5.00
same,pIC50,"[5]; Homo sapiens, IGROV-1",7.14
same,pIC50,"[6]; Homo sapiens, MDA-MB-175-VII",< 5.00
same,pIC50,"[7]; Homo sapiens, KYSE-520",< 5.00
same,pIC50,[8]; Homo sapiens,< 5.00
same,pIC50,"[9]; Homo sapiens, SW1783",< 5.00
same,pIC50,"[10]; Homo sapiens, NCI-H28",< 5.00
same,pIC50,"[11]; Homo sapiens, LCLC-103H",< 5.00
same,pIC50,"[12]; Homo sapiens, Hs-578T",< 5.00
same,pIC50,"[13]; Homo sapiens, SNU-423",< 5.00
same,pIC50,"[14]; Homo sapiens, SN12C",< 5.00
same,pIC50,"[15]; Homo sapiens, NCI-H727",< 5.00
same,pIC50,"[16]; Homo sapiens, ME-180",< 5.00
same,pIC50,"[17]; Homo sapiens, NCI-H2347",< 5.00
same,pIC50,"[18]; Homo sapiens, OC-314",< 5.00
same,pIC50,"[19]; Homo sapiens, HLE",< 5.00
same,pIC50,"[20]; Homo sapiens, EFM-19",< 5.00
same,pIC50,"[21]; Homo sapiens, 8305C",< 5.00
same,pIC50,"[22]; Homo sapiens, A549",< 5.00
same,pIC50,"[23]; Homo sapiens, KYSE-270",< 5.00
same,pIC50,"[24]; Homo sapiens, BT-549",< 5.00
same,pIC50,"[25]; Homo sapiens, KNS-62",< 5.00
same,pIC50,"[26]; Homo sapiens, C-33-A",< 5.00
same,pIC50,"[27]; Homo sapiens, HSC-3",< 5.00
same,pIC50,"[28]; Homo sapiens, Detroit 562",< 5.00
same,pIC50,"[29]; Homo sapiens, NCI-H2087",< 5.00
same,pIC50,"[30]; Homo sapiens, BFTC-909",< 5.00
same,pIC50,"[31]; Homo sapiens, SW1990",< 5.00
same,pIC50,"[32]; Homo sapiens, HCC1395",< 5.00
same,pIC50,"[33]; Homo sapiens, NCI-H1693",< 5.00
same,pIC50,"[34]; Homo sapiens, 639-V",< 5.00
same,pIC50,"[35]; Homo sapiens, M14",< 5.00
same,pIC50,"[36]; Homo sapiens, HPAF-II",< 5.00
same,pIC50,"[37]; Homo sapiens, Huh-7",< 5.00
same,pIC50,"[38]; Homo sapiens, RCM-1",< 5.00
same,pIC50,"[39]; Homo sapiens, HSC-4",< 5.00
CISPLATIN,pIC50,[1]; efo-21,4.47
same,pIC50,[2]; a 172,4.10
same,pIC50,[3]; nci-h2052,3.78
same,pIC50,[4]; gamg,3.54
same,pIC50,[5]; igrov-1,6.46
same,pIC50,[6]; mda-mb-175-vii,4.16
same,pIC50,[7]; kyse-520,4.66
same,pIC50,[8],5.35
same,pIC50,[9]; sw1783,4.63
same,pIC50,[10]; nci-h28,3.93
same,pIC50,[11]; lclc-103h,4.55
same,pIC50,[12]; hs-578-t,4.95
same,pIC50,[13]; snu-423,3.96
same,pIC50,[14]; sn12c,4.77
same,pIC50,[15]; nci-h727,3.16
same,pIC50,[16]; me-180,4.26
same,pIC50,[17]; nci-h2347,3.66
same,pIC50,[18]; oc-314,4.85
same,pIC50,[19]; hle,5.22
same,pIC50,[20]; efm-19,3.61
same,pIC50,[21]; 8305c,4.21
same,pIC50,[22]; a549,4.73
same,pIC50,[23]; kyse-270,5.04
same,pIC50,[24]; bt-549,4.84
same,pIC50,[25]; kns-62,4.85
same,pIC50,[26]; c-33-a,5.04
same,pIC50,[27]; hsc-3,4.66
same,pIC50,[28]; detroit 562,4.42
same,pIC50,[29]; nci-h2087,4.84
same,pIC50,[30]; bftc-909,4.83
same,pIC50,[31]; sw1990,5.01
same,pIC50,[32]; hcc1395,3.85
same,pIC50,[33]; nci-h1693,3.91
same,pIC50,[34]; 639-v,5.23
same,pIC50,[35]; m14,5.55
same,pIC50,[36]; hpaf-ii,3.94
same,pIC50,[37]; huh-7,4.39
same,pIC50,[38]; rcm-1,3.91
same,pIC50,[39]; hsc-4,5.80
